Experimental data: paper PMC6920847, “2-Hydroxy-N-phenylbenzamides and Their Esters Inhibit Acetylcholinesterase and Butyrylcholinesterase” (Biomolecules, 2019)
Like-named read-outs stand apart in the source and are kept apart here.

Key:
[1] = target: T1, AChE from electric eel (EeAChE) (Electrophorus electricus, UniProt O42275); assay: Inhibition of AChE, modified Ellman's spectrophotometric method; type: biochemical, electric eel (Electrophorus electricus L.); details: for Selectivity AChE/BuChE: SI = IC50 for AChE/IC50 for BuChE, SI lower than 1 means selectivity for AChE
T1 construct: Acetylcholinesterase was obtained from electric eel (Electrophorus electricus L.); purchased Sigma-Aldrich (Prague, Czech Republic); host or cells: electric eel (natural source)
Method: (§1) The IC50 values were determined using the spectrophotometric Ellman’s method modified according to Zdražilová et al., which is a simple, rapid and direct method to determine the SH and -S-S- group content in proteins. This method is widely used for the screening of the efficiency of cholinesterases inhibitors. The enzymatic activity is measured indirectly by quantifying the concentration of the 5-thio-2-nitrobenzoic acid ion formed in the reaction between the thiol reagent 5,5′-dithio-bis(2-nitrobenzoic acid) and thiocholine, a product of substrate hydrolysis (i.e., acetylthiocholine; ATCH) by cholinesterases.
(§2) The enzyme activity in final reaction mixture (2000 µL) was 0.2 U/mL, concentration of acetylthiocholine (or butyrylthiocholine, BTCH) 40 µM and concentration of 5,5′-dithio-bis(2-nitrobenzoic acid) 0.1 mM for all reactions. The tested compounds were dissolved in DMSO and then diluted in demineralized water to the concentration of 1 µM. […] All measurements were carried in triplicate and the average values of reaction rate (v0-uninhibited reaction, vi-inhibited reaction) were used for construction of the dependence v0/vi vs. concentration of inhibitor. From obtained equation of regression curve, the value of IC50 was calculated (based on the definition of IC50).
(§3) Acetylcholinesterase was obtained from electric eel (Electrophorus electricus L.) and butyrylcholinesterase was from an equine serum.
(§4) Thirty-six benzamides 1–4l were evaluated as potential inhibitors of AChE from electric eel (EeAChE) and BuChE from equine serum (EqBuChE) using Ellman’s spectrophotometric method modified according to Zdražilová et al.. Their efficacy is expressed as IC50, i.e., the concentration required for 50% inhibition of the enzymatic activity. Based on inhibition of both cholinesterases, we calculated selectivity indexes (SI) as the ratio of IC50 value for AChE/IC50 value for BuChE to express the selectivity quantitatively (Table 1).

[2] = target: T2, BuChE from equine serum (EqBuChE) (Equus caballus, UniProt P81908); assay: Inhibition of BuChE, modified Ellman's spectrophotometric method; type: biochemical; details: for IC50: mean ± SD, n = three experiments
T2 construct: butyrylcholinesterase was from an equine serum; purchased Sigma-Aldrich (Prague, Czech Republic); host or cells: equine serum (natural source)
Method: as §1, §2, §3, §4

[3] = target: T1, AChE from electric eel (EeAChE); details: SI = IC50 for AChE/IC50 for BuChE; cited from earlier work
[4] = mean ± SD, n = three experiments, read-out: IC50 (EeAChE)
[5] = ratio of IC50 values vs parent 3k

T2 sequence (P81908 whole entry): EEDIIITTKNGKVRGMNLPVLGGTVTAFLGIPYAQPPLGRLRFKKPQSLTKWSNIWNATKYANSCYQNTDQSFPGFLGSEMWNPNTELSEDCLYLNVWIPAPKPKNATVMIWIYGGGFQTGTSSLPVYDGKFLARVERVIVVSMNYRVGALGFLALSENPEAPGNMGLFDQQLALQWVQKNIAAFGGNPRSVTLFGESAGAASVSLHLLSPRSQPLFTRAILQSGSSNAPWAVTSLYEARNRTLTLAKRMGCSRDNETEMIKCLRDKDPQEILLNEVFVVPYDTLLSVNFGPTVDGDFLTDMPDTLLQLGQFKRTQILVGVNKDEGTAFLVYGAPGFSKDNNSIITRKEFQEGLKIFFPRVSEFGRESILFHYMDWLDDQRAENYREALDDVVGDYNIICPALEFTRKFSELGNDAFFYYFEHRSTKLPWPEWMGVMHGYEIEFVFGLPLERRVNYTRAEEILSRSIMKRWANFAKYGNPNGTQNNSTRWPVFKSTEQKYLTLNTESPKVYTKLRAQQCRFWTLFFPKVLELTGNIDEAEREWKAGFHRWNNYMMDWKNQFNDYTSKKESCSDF
T1 sequence (O42275 24-633): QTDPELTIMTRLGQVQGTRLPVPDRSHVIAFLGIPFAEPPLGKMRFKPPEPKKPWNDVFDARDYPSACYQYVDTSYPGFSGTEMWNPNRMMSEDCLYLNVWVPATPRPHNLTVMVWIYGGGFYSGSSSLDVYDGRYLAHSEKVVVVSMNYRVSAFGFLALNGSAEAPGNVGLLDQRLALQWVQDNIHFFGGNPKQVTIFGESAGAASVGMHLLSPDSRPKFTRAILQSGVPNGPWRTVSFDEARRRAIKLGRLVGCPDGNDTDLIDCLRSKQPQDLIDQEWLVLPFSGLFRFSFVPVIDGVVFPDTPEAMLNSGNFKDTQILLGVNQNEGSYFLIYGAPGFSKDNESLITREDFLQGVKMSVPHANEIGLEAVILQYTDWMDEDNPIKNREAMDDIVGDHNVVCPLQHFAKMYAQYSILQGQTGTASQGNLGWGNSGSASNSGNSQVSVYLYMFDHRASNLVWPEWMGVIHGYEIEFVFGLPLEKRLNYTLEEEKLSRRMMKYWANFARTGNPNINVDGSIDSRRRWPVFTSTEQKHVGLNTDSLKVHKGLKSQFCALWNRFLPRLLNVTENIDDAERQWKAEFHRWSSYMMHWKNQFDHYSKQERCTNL

SMILES	Selectivity AChE/BuChE [1]	IC50 [1, 4] [µM]	IC50 ([2]; read-out: IC50 (EqBuChE)) [µM]	IC50 [1] [µM]	IC50 ([2]; IC50 (EqBuChE)) [µM]	Enhancement of AChE inhibition compared to parent 3k [1, 5] [times]	Enhancement of BuChE inhibition compared to parent 3k [2, 5]	Selectivity AChE/BuChE [3]
O=C(Nc1cc(Cl)c(Cl)c(Cl)c1)c1cc(Cl)ccc1O [Compound 2e, 5-Chloro-N-(3,4,5-trichlorophenyl)-2-hydroxybenzamide]	0.50	51.06 ± 0.49	102.7 ± 0.97					
O=C(Nc1ccc(Cl)cc1)c1cc(Br)ccc1O [Compound 4b]	0.66			85.8 ± 6.1	131 ± 3.99			
O=C(Nc1cc(Cl)cc(Cl)c1)c1ccc(Cl)cc1O [Compound 3d, 4-Chloro-N-(3,5-dichlorophenyl)-2-hydroxybenzamide]	0.36	50.15 ± 0.26	141 ± 2.8					
CCOP(=S)(OCC)Oc1cc(Cl)ccc1C(=O)Nc1ccc(C(F)(F)F)cc1 [Compound 5b]						6.6	up to 20.3 times	0.50
O=C(Nc1ccc(F)cc1)c1cc(Br)ccc1O [Compound 4i]	0.45			61.2 ± 1.08	137 ± 1.47			
O=C(Nc1cccc(C(F)(F)F)c1)c1ccc(Cl)cc1O [Compound 3j]	0.42			68.3 ± 3.78	163 ± 11.7			
O=C(Nc1ccc(Br)cc1)c1cc(Cl)ccc1O [Compound 2g]	0.49	58.2 ± 4.87	119 ± 6.65					
O=C(Nc1ccc(Cl)cc1)c1ccc(Cl)cc1O [Compound 3b]	0.37			56.2 ± 3.23	152 ± 3.13			
O=C(Nc1cccc(C(F)(F)F)c1)c1cc(Br)ccc1O [Compound 4j, 5-bromo-2-hydroxy-N-[3-(trifluoromethyl)phenyl]benzamide]	0.36			42.67 ± 0.18	117 ± 2.23			
O=C(Nc1ccc(Cl)c(Cl)c1)c1ccc(Cl)cc1O [Compound 3c]	0.46	46.3 ± 0.56	100 ± 1.15					
O=C(Nc1cccc(F)c1)c1cc(Br)ccc1O [Compound 4h]	0.46			54.4 ± 0.73	119 ± 2.53			
O=C(Nc1cc(C(F)(F)F)cc(C(F)(F)F)c1)c1cc(Br)ccc1O [Compound 4l]	0.91			48.5 ± 1.07	53.5 ± 3.2			
O=C(Nc1ccc(C(F)(F)F)cc1)c1cc(Br)ccc1O [Compound 4k]	0.33			44.8 ± 3.44	134.8 ± 0.86			
O=C(Nc1ccc(Cl)cc1)c1cc(Cl)ccc1O [Compound 2b]	0.45			76.5 ± 2.17	170 ± 3.09			
O=C(Nc1cccc(F)c1)c1cc(Cl)ccc1O [Compound 2h]	0.38			58.6 ± 3.98	154 ± 8.38			
O=C1c2ccc(Cl)cc2OP(=S)(c2ccccc2)N1c1ccc(C(F)(F)F)cc1 (racemic) [Compound 5e, (RS)-7-Chloro-2-phenyl-3-[4-(trifluoromethyl)phenyl]-3-hydrobenzo[e][1,3,2]oxazaphosphinin-4-one 2-sulfide]	0.37	63.5 ± 1.41	170 ± 13.6					
O=C(Nc1ccc(C(F)(F)F)cc1)c1ccc(Cl)cc1O [Compound 3k, 4-chloro-2-hydroxy-N-[4-(trifluoromethyl)phenyl]benzamide]	0.30			60.3 ± 2.39	200 ± 2.02			
O=C(Nc1cc(C(F)(F)F)cc(C(F)(F)F)c1)c1ccc(Cl)cc1O [Compound 3l]	0.36	54.7 ± 2.05	150.5 ± 0.87					
O=C(Nc1cccc(C(F)(F)F)c1)c1cc(Cl)ccc1O [Compound 2j]	0.45			54.41 ± 0.25	120 ± 3.02			
O=C1c2ccc(Cl)cc2OP(=O)(c2ccccc2)N1c1ccc(C(F)(F)F)cc1 (racemic) [Compound 5d, (RS)-7-Chloro-2-phenyl-3-[4-(trifluoromethyl)phenyl]-3-hydrobenzo[e][1,3,2]oxazaphosphinin-4-one 2-oxide]	1.93	48.1 ± 1.7	25 ± 0.3					

SMILES	Selectivity AChE/BuChE [1]	IC50 [1, 4] [µM]	IC50 ([2]; read-out: IC50 (EqBuChE)) [µM]	IC50 [1] [µM]	IC50 ([2]; IC50 (EqBuChE)) [µM]	Enhancement of AChE inhibition compared to parent 3k [1, 5] [times]	Enhancement of BuChE inhibition compared to parent 3k [2, 5]	Selectivity AChE/BuChE [3]
O=C(Nc1cccc(Br)c1)c1cc(Br)ccc1O [Compound 4f]	0.48			69.7 ± 9.97	146 ± 3.53			
O=C(Nc1ccc(Cl)c(Cl)c1)c1cc(Br)ccc1O [Compound 4c]	0.50	60.8 ± 3.65	123 ± 7.2					
O=C(Nc1cc(Cl)c(Cl)c(Cl)c1)c1ccc(Cl)cc1O [Compound 3e, 4-Chloro-N-(3,4,5-trichlorophenyl)-2-hydroxybenzamide]	0.44	57.8 ± 4.05	132 ± 4.31					
O=C(Nc1cc(Cl)cc(Cl)c1)c1cc(Cl)ccc1O [Compound 2d, 5-Chloro-N-(3,5-dichlorophenyl)-2-hydroxybenzamide]	0.41	46.2 ± 0.63	112 ± 7.98					
O=C(Nc1ccc(Br)cc1)c1cc(Br)ccc1O [Compound 4g]	0.63	70.3 ± 2.85	112 ± 1.79					
O=C(Nc1cccc(Cl)c1)c1cc(Cl)ccc1O [Compound 2a]	0.26	59.5 ± 3.8	228 ± 11.3					
O=C(Nc1ccccc1)c1ccccc1O [Compound 1, salicylanilide]	0.24	49.7 ± 3.73	206 ± 12.1					
O=C(Nc1ccc(F)cc1)c1cc(Cl)ccc1O [Compound 2i]	0.36			48.3 ± 8.9	133 ± 15.8			
O=C(Nc1cccc(Br)c1)c1cc(Cl)ccc1O [Compound 2f]	0.35			50.03 ± 0.15	141 ± 1.13			
O=C(Nc1cc(Cl)cc(Cl)c1)c1cc(Br)ccc1O [Compound 4d, 5-Bromo-N-(3,5-dichlorophenyl)-2-hydroxybenzamide]	0.24	33.1 ± 0.47	135.9 ± 0.14					
O=C(Nc1cccc(Br)c1)c1ccc(Cl)cc1O [Compound 3f]	0.36	60.03 ± 0.42	168 ± 2.06					
O=C(Nc1cc(C(F)(F)F)cc(C(F)(F)F)c1)c1cc(Cl)ccc1O [Compound 2l]	0.78	50.2 ± 0.88	64.4 ± 1.34					
O=C(Nc1cccc(Cl)c1)c1cc(Br)ccc1O [Compound 4a]	0.46			62 ± 6.48	134 ± 1.63			
O=C(Nc1ccc(Cl)c(Cl)c1)c1cc(Cl)ccc1O [Compound 2c]	0.33	60.8 ± 6.88	186 ± 15.7					
O=C(Nc1ccc(F)cc1)c1ccc(Cl)cc1O [Compound 3i]	0.41			62.8 ± 1.53	152 ± 7.58			
O=C(Nc1cc(Cl)c(Cl)c(Cl)c1)c1cc(Br)ccc1O [Compound 4e, 5-Bromo-N-(3,4,5-trichlorophenyl)-2-hydroxybenzamide]	0.30	42.1 ± 2.41	140 ± 6.2					
O=C(Nc1ccc(Br)cc1)c1ccc(Cl)cc1O [Compound 3g]	0.34			58.3 ± 1.57	174 ± 4.02			
O=C(Nc1cccc(Cl)c1)c1ccc(Cl)cc1O [Compound 3a]	0.43			58.1 ± 1.2	134.3 ± 0.24			
O=C(Nc1cccc(F)c1)c1ccc(Cl)cc1O [Compound 3h]	0.42			60.8 ± 1.74	146 ± 4.07			
